From ChEMBL document CHEMBL5154803, “Spermine-Conjugated Short Proline-Rich Lipopeptides as Broad-Spectrum Intracellular Targeting Antibacterial Agents” (J Med Chem, 2022) come the findings set out here.

≈ marks a conversion by molar mass, not a printed value. Calls of active or inactive are those of the source. The calls are words filed in the database; no cut-off is given here. Where a SMILES comes first, the peptide text is derived from it. The star is where a group is joined. Myristoyl = CCCCCCCCCCCCCC(=O)*; Decanoyl = CCCCCCCCCC(=O)*; Spermine = NCCCNCCCCNCCCN*

The test system of data set [1] is Escherichia coli. The data set can be described thus: Antibacterial activity against Escherichia coli ATCC 25922 assessed as reduction in bacterial growth measured after 18 hrs by broth microdilution method. In kind it is functional. Background: Broth dilution looks for growth in wells or tubes with falling amounts of substance.
Another data set relates to Pseudomonas aeruginosa. In words: Antibacterial activity against Pseudomonas aeruginosa ATCC BAA-427 assessed as reduction in bacterial growth measured after 18 hrs by broth microdilution method. In kind it is functional.
The test system of the next data set is Acinetobacter baumannii. The data set can be described thus: Antibacterial activity against Acinetobacter baumannii i ATCC 19606 assessed as reduction in bacterial growth measured after 18 hrs by broth microdilution method. In kind it is functional.
In data set [2] the test system is Staphylococcus aureus. In words: Antibacterial activity against Staphylococcus aureus ATCC 25923 assessed as reduction in bacterial growth measured after 18 hrs by broth microdilution method. The format is functional.
For data set [3], the system named is Staphylococcus aureus. The data set can be described thus: Antibacterial activity against methicillin-resistant Staphylococcus aureus ATCC 33591 assessed as reduction in bacterial growth measured after 18 hrs by broth microdilution method. The format is functional.
In data set [4] the test system is Staphylococcus aureus. In words: Antibacterial activity against MDR-methicillin-resistant Staphylococcus aureus ATCC BAA-44 assessed as reduction in bacterial growth measured after 18 hrs by broth microdilution method. In kind it is functional.
Data set [5] has as its system Staphylococcus epidermidis. In words: Antibacterial activity against Staphylococcus epidermidis ATCC 12228 assessed as reduction in bacterial growth measured after 18 hrs by broth microdilution method. In kind it is functional.
Data set [6] deals with Staphylococcus epidermidis. In words: Antibacterial activity against methicillin-resistant Staphylococcus epidermidis ATCC 51625 assessed as reduction in bacterial growth measured after 18 hrs by broth microdilution method. In kind it is functional.
Data set [7] relates to Cell membrane. The data set can be described thus: Disruption of bacterial cell membrane in Escherichia coli ATCC 25922 at 5XMIC by SEM analysis. The format is subcellular.
For data set [8], the system named is Cell membrane. In words: Disruption of bacterial cell membrane in Escherichia coli ATCC 25922 assessed as proportion of bacteria with intact cell membrane at 5X MIC incubated for 1 hr by PI staining based flow cytometric analysis (reference value: 99.3%). In kind it is subcellular. A general note: Flow cytometry measures light scatter and fluorescence of single cells or particles in a stream.

The subject of data set [9] is Cell membrane. In words: Disruption of bacterial cell membrane in Escherichia coli ATCC 25922 assessed as proportion of bacteria with damaged cell membrane at 5X MIC incubated for 1 hr by PI staining based flow cytometric analysis (reference value: 0.7%). In kind it is subcellular.
Data set [10] has as its system Staphylococcus aureus. In words: In vivo antibacterial activity against Staphylococcus aureus ATCC 25923 infected in BALB/c mouse model assessed as reduction of bacterial load in spleen at 100 mg/kg, ip administered as single dose measured after 24 hrs by colony counting based analysis. In kind it is functional, organism-based.
The subject of data set [11] is Staphylococcus aureus. The data set can be described thus: In vivo antibacterial activity against Staphylococcus aureus ATCC 25923 infected in BALB/c mouse model assessed as reduction of bacterial load in liver at 100 mg/kg, ip administered as single dose measured after 24 hrs by colony counting based analysis. The format is functional, organism-based.
Data set [12] has as its system Staphylococcus aureus. In words: In vivo antibacterial activity against Staphylococcus aureus ATCC 25923 infected in BALB/c mouse model assessed as reduction of bacterial load in kidney at 100 mg/kg, ip administered as single dose measured after 24 hrs by colony counting based analysis. The format is functional, organism-based.
For a further data set, the system named is Erythrocyte. The data set can be described thus: Hemolytic activity against human RBC assessed as hemolysis upto 100 uM incubated for 1 hr by ELISA plate reader analysis. The format is toxicity, cell-based.
Data set [13] in a line: Cytotoxicity against human THP-1 cells assessed as cell viability at 50 uM by MTT assay. Conditions: read-out: Activity. The format is toxicity, cell-based. (Tetrazolium assays rely on reduction of a dye to a coloured formazan, in cell work by metabolically active cells.)
Data set [14] relates to Escherichia coli. The data set can be described thus: Antibacterial activity against Escherichia coli ATCC 25922 assessed as reduction in bacterial growth measured after 18 hrs in presence of 10% v/v human serum in MHB by broth microdilution method. In kind it is functional. The conditions noted are these: ATCC 25922, Serum.

The term MIC denotes the lowest concentration found to suppress growth. For `CCCCCCCCCC(=O)NCCCNCCCCNCCCN`, the minimum inhibitory concentration (MIC) in the data set on Escherichia coli [1], in the data set with Pseudomonas aeruginosa, in the data set with Acinetobacter baumannii, in the data set with Staphylococcus aureus [2], in the data set with Staphylococcus aureus [3] and with Staphylococcus aureus [4] was more than 200 µM throughout. Also, the minimal inhibitory concentration (MIC) in data set [5] and in [6] was more than 200 µM in each case.
With `CCCCCCCCCCCC(=O)NCCCNCCCCNCCCN`, the MIC in the data set on Escherichia coli [1], with Pseudomonas aeruginosa, in the data set with Acinetobacter baumannii, in the data set with Staphylococcus aureus [2], in the data set with Staphylococcus aureus [3] and with Staphylococcus aureus [4] was more than 200 µM in each case. The MIC in data set [5] and in data set [6] was more than 200 µM each time.
Take `CC[C@H](C)[C@H](NC(=O)CN)C(=O)NCC(=O)N[C@@H](C)C(=O)N[C@H](C(=O)N[C@@H](CC(C)C)C(=O)N[C@@H](CCCCN)C(=O)N[C@H](C(=O)N[C@@H](CC(C)C)C(=O)N[C@H](C(=O)N[C@H](C(=O)NCC(=O)N[C@@H](CC(C)C)C(=O)N1CCC[C@H]1C(=O)N[C@@H](C)C(=O)N[C@@H](CC(C)C)C(=O)N[C@H](C(=O)N[C@@H](CO)C(=O)N[C@@H](Cc1c[nH]c2ccccc12)C(=O)N[C@H](C(=O)N[C@@H](CCCCN)C(=O)N[C@@H](CCCNC(=N)N)C(=O)N[C@@H](CCCCN)C(=O)N[C@@H](CCCNC(=N)N)C(=O)N[C@@H](CCC(N)=O)C(=O)N[C@@H](CCC(N)=O)C(N)=O)[C@@H](C)CC)[C@@H](C)CC)[C@@H](C)O)[C@@H](C)O)C(C)C)C(C)C`: the result in the data set on Cell membrane [7] was Active. The Activity in the data set on Cell membrane [8] was found to be 36%; in the data set with Cell membrane [9], 64%.
On to `C[C@H]1COc2c(N3CCN(C)CC3)c(F)cc3c(=O)c(C(=O)O)cn1c23`, for which the result in the data set with Staphylococcus aureus [10], with Staphylococcus aureus [11] and in the data set on Staphylococcus aureus [12] was Active.
Regarding `CCCCCCCCCC(=O)N1CCC[C@H]1C(=O)N[C@@H](CCCNC(=N)N)C(=O)N1CCC[C@H]1C(=O)N[C@@H](CCCNC(=N)N)C(=O)N1CCC[C@H]1C(=O)N1CCC[C@H]1C(=O)N[C@@H](CCCNC(=N)N)C(=O)O` (Decanoyl-PRPRPPR-OH), the MIC in the data set on Escherichia coli [1], in the data set with Pseudomonas aeruginosa, with Acinetobacter baumannii, in the data set with Staphylococcus aureus [2], in the data set on Staphylococcus aureus [3] and with Staphylococcus aureus [4] was more than 200 µM throughout. Further, the minimum inhibitory concentration (MIC) in data set [5] and in data set [6] was more than 200 µM throughout.
Regarding `N=C(N)NCCC[C@H](NC(=O)[C@@H]1CCCN1C(=O)[C@@H]1CCCN1C(=O)[C@H](CCCNC(=N)N)NC(=O)[C@@H]1CCCN1C(=O)[C@H](CCCNC(=N)N)NC(=O)[C@@H]1CCCN1)C(=O)NCCCNCCCCNCCCN` (H-PRPRPPR-Spermine), the minimal inhibitory concentration (MIC) in the data set with Escherichia coli [1] was more than 200 µM; in the data set on Pseudomonas aeruginosa it was more than 200 µM; in the data set on Acinetobacter baumannii it was more than 200 µM; in the data set with Staphylococcus aureus [2], 200 µM (≈ 212 µg/mL); in the data set with Staphylococcus aureus [3], more than 200 µM; with Staphylococcus aureus [4], more than 200 µM. Also, the MIC in data set [5] and in data set [6] was more than 200 µM each time.
Turning to `CCCCCCCCCCCCCC(=O)N1CCC[C@H]1C(=O)N[C@@H](CCCNC(=N)N)C(=O)N1CCC[C@H]1C(=O)N[C@@H](CCCNC(=N)N)C(=O)N1CCC[C@H]1C(=O)N1CCC[C@H]1C(=O)N[C@@H](CCCNC(=N)N)C(=O)NCCCNCCCCNCCCN` (Myristoyl-PRPRPPR-Spermine), the MIC in the data set with Escherichia coli [1] was found to be 3.1 µM (≈ 3.94 µg/mL); with Pseudomonas aeruginosa it was 6.2 µM (≈ 7.87 µg/mL); in the data set on Acinetobacter baumannii, 6.2 µM (≈ 7.87 µg/mL); in the data set with Staphylococcus aureus [2], 3.1 µM (≈ 3.94 µg/mL); with Staphylococcus aureus [3] it was 1.5 µM (≈ 1.9 µg/mL); in the data set with Staphylococcus aureus [4], 1.5 µM (≈ 1.9 µg/mL). The MIC was 1.5 µM (≈ 1.9 µg/mL) in data set [5], 1.5 µM (≈ 1.9 µg/mL) in data set [6] and 3.1 µM in the data set on Escherichia coli [14]. Also, in the data set with Erythrocyte, the Activity result was “Toxic”. For the same compound, in data set [13], the viability at 50 µM was found to be 40%.
`CC1(C)S[C@@H]2[C@H](NC(=O)[C@H](N)c3ccccc3)C(=O)N2[C@H]1C(=O)O` [AMPICILLIN]: the MIC with Staphylococcus aureus [4] amounted to 125 µM (≈ 43.7 µg/mL).
Same read-out and setting: under `O=C(N[C@H](CO)[C@H](O)c1ccc([N+](=O)[O-])cc1)C(Cl)Cl` [CHLORAMPHENICOL] stands 1000 µM (≈ 323 µg/mL); under `NC[C@@H]1O[C@H](O[C@H]2[C@@H](O)[C@H](O[C@@H]3[C@@H](O)[C@H](N)C[C@H](N)[C@H]3O[C@H]3O[C@H](CN)[C@@H](O)[C@H](O)[C@H]3N)O[C@@H]2CO)[C@H](N)[C@@H](O)[C@@H]1O` [FRAMYCETIN], 125 µM (≈ 76.8 µg/mL); under `CO[C@H]1/C=C/O[C@@]2(C)Oc3c(C)c(O)c4c(O)c(c(/C=N/N5CCN(C)CC5)c(O)c4c3C2=O)NC(=O)/C(C)=C\C=C\[C@H](C)[C@H](O)[C@@H](C)[C@@H](O)[C@@H](C)[C@H](OC(C)=O)[C@@H]1C` [RIFAMPIN], 1.25 µM (≈ 1.03 µg/mL).
Take `CN(C)[C@@H]1C(O)=C(C(N)=O)C(=O)[C@@]2(O)C(O)=C3C(=O)c4c(O)cccc4[C@@](C)(O)[C@H]3C[C@@H]12` [TETRACYCLINE]: the MIC in the data set with Staphylococcus aureus [4] was 62.5 µM (≈ 27.8 µg/mL).
For the compound `CN[C@H](CC(C)C)C(=O)N[C@H]1C(=O)N[C@@H](CC(N)=O)C(=O)N[C@H]2C(=O)N[C@H]3C(=O)N[C@H](C(=O)N[C@H](C(=O)O)c4cc(O)cc(O)c4-c4cc3ccc4O)[C@H](O)c3ccc(c(Cl)c3)Oc3cc2cc(c3O[C@@H]2O[C@H](CO)[C@@H](O)[C@H](O)[C@H]2O[C@H]2C[C@](C)(N)[C@H](O)[C@H](C)O2)Oc2ccc(cc2Cl)[C@H]1O` [VANCOMYCIN], the minimum inhibitory concentration (MIC) is 200 µM (≈ 290 µg/mL) in the data set on Escherichia coli [1]; 56.8 µM (≈ 82.3 µg/mL) with Acinetobacter baumannii; 0.4 µM (≈ 0.58 µg/mL) in the data set on Staphylococcus aureus [2]; 0.8 µM (≈ 1.16 µg/mL) with Staphylococcus aureus [3]; 0.8 µM (≈ 1.16 µg/mL) in the data set on Staphylococcus aureus [4]; 0.4 µM (≈ 0.58 µg/mL) in data set [5]. Also, the minimal inhibitory concentration (MIC) in data set [6] amounted to 0.8 µM (≈ 1.16 µg/mL).
Take GENTAMICIN: the MIC in the data set on Staphylococcus aureus [4] stood at 2.5 µM.
Take H-PRPRPPR-OH: the MIC in the data set with Escherichia coli [1], in the data set on Pseudomonas aeruginosa, in the data set on Acinetobacter baumannii, in the data set on Staphylococcus aureus [2], in the data set on Staphylococcus aureus [3] and with Staphylococcus aureus [4] was more than 200 µM throughout. In addition, the minimal inhibitory concentration (MIC) in data set [5] and in [6] was more than 200 µM each time.
